The record followed here is ChEMBL document CHEMBL2202968, “2-Styrylindolium based fluorescent probes visualize neurofibrillary tangles in Alzheimer's disease” (Bioorg Med Chem Lett, 2012).

The target in series [1] is Amyloid-beta precursor protein (Homo sapiens) (UniProt P05067). In words: Binding affinity to amyloid beta aggregates in Alzheimer patient hippocampus by fluorescence microscopy. Type of series: tissue-based.
Series [2] is filed under the species Danio rerio. Briefly: Toxicity against Zebra fish embryo assessed as lesions up to 10 uM at 24 hrs post-fertilization by microscopic analysis. The format is organism-based. Conditions: zebrafish, in vivo.
The target of series [3] is T1, Microtubule-associated protein tau (Homo sapiens, UniProt P10636). In words: Binding affinity to Tau aggregates in Alzheimer patient hippocampus by fluorescence microscopy. The format is tissue-based.
Series [4] is described as follows: Displacement of thiazine red R from amyloid beta (1 to 40) aggregate after 30 mins by fluorimetric analysis.
Series [5] has as its system HepG2. Briefly: Cytotoxicity against human HepG2 cells after 24 hrs. The format is cell-based. Conditions: HepG2, 24 h.
Series [6] can be described thus: Aqueous solubility of the compound. The format is physicochemical. Conditions: buffer.
Series [7] has as its target T1, Microtubule-associated protein tau. Briefly: Displacement of thiazine red R from human Tau aggregate expressed in Escherichia coli after 30 mins by fluorimetric analysis.
The species named for series [8] is Danio rerio. In words: Toxicity against juvenile Zebra fish assessed as lesions in yolk sac up to 10 uM at 72 hrs post-fertilization by microscopic analysis. Particulars: zebrafish, in vivo. Type of series: organism-based.
Series [9] can be described thus: Binding affinity to amyloid beta (1 to 40) aggregate.

Active and inactive are the calls of the source. The calls are words filed in the database; no cut-off is given here.

One may read the IC50 as the concentration needed to halve the response being measured. What is called EC50 is the midpoint of the concentration-response curve. Higher therefore signals weaker potency. What is called solubility is the dissolved amount per volume that the medium holds. Low values mean little dissolved substance, high ones much dissolved substance. For orientation: Ki means a dissociation constant, usually derived from enzyme kinetics or from competition with a known ligand. High values mean a looser hold on the target, low ones a stronger hold on the target.

T1 sequence (P10636 whole entry): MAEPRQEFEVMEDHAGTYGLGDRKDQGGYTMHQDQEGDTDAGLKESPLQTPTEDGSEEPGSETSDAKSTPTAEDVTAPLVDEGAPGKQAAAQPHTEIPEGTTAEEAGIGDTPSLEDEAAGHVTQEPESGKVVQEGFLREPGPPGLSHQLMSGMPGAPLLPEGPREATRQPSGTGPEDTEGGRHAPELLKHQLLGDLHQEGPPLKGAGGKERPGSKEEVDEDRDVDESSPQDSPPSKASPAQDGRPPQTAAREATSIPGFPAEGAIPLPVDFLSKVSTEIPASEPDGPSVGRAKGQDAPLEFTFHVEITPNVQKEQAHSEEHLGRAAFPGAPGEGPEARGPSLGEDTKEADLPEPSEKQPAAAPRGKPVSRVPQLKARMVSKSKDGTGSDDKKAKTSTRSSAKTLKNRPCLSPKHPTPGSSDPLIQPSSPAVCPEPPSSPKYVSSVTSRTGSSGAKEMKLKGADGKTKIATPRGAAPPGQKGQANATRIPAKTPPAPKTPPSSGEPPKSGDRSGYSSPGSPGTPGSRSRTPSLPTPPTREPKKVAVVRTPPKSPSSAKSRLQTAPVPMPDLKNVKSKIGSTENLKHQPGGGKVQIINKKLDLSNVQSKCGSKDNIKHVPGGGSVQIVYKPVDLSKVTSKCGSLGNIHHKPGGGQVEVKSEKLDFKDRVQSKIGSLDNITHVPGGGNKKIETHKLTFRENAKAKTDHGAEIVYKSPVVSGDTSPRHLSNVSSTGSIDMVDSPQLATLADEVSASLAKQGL
Amyloid-beta precursor protein (Homo sapiens), sequence (P05067 whole entry): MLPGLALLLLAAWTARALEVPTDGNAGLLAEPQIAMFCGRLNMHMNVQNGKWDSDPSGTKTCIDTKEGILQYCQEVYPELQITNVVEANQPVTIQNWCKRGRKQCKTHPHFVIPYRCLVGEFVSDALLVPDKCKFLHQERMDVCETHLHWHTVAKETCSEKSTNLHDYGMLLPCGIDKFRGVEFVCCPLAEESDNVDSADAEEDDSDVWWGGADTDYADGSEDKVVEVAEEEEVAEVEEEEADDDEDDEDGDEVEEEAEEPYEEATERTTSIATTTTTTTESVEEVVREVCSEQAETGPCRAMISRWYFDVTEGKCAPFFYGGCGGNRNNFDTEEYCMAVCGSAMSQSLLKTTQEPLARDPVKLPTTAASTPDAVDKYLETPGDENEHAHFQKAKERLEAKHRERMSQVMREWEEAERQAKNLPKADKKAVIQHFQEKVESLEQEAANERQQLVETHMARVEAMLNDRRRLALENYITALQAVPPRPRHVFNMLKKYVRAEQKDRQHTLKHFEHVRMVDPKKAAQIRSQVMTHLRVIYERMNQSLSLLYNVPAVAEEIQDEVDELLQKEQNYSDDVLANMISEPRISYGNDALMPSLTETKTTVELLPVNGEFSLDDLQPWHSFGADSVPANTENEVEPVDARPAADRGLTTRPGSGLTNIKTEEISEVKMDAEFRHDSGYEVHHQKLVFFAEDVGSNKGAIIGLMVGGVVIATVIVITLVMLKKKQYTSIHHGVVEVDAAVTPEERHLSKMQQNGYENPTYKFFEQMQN

Regarding `CCCC[N+]1=C(/C=C/c2ccc(N(CC)CC)cc2)C(C)(C)c2ccccc21.[I-]`, the result in series [1] was inactive. Further, the Activity result is recorded as “Non-toxic” in [2] and “Toxic” in series [8]. The result in series [3] was Active. For the same compound, the results for the IC50 in series [4] and in [7] were 1.37 nM and 1.41 nM, respectively. The same compound had an EC50 in [5] of 930 nM. The solubility in series [6] is greater than 100 µg/mL.
`CNc1ccc(-c2nc3ccc(O)cc3s2)cc1` [PITTSBURGH COMPOUND B UNLABELLED] registered an IC50 in series [7] of 3260 nM.
As to `C[N+]1=C(/C=C/c2ccc(O)cc2)C(C)(C)c2ccccc21.[I-]`, the result in [1] was inactive. In series [3], the outcome was Active. In [6], this compound yielded a solubility greater than 500 µg/mL.
On to `COc1cc(/C=C/c2ccc(O)cc2)ccc1/C=C/c1ccc(O)cc1`, for which the IC50 in series [4] is 140 nM. The same compound gave a Ki in [9] of 26.8 nM.
With `CCN(CC)c1ccc(/C=C/C2=[N+](C)c3ccccc3C2(C)C)cc1.[I-]`, the outcome in series [1] was inactive. Besides, the Activity entry in [2] is reported as “Non-toxic”. Also, the outcome in series [3] was Active. The same compound showed an EC50 in [5] of 8570 nM. This compound also came in with a solubility in [6] greater than 500 µg/mL.
On the same counts, the results for `COc1ccc(/C=C/C2=[N+](C)c3ccccc3C2(C)C)cc1.[I-]` are “inactive”, “Non-toxic”, “Active”, 10900 nM and greater than 500 µg/mL.
On to `C[N+]1=C(/C=C/c2ccc(N3CCCC3)cc2)C(C)(C)c2ccccc21.[I-]`, for which the result in [1] was inactive. Besides, the Activity entry in series [2] is listed as “Non-toxic”. In addition, the outcome in series [3] was Active. In series [5], this compound yielded an EC50 of 8310 nM. This compound also had a solubility in series [6] greater than 500 µg/mL. In series [7], this compound registered an IC50 of 5.1 nM.
Turning to `CNc1ccc(-c2ccc3ccccc3n2)cc1`, the IC50 in [4] and in [7] was greater than 10000 nM throughout.
Consider `CC(=C(C#N)C#N)c1ccc2cc(N(C)CCF)ccc2c1`, for which the IC50 in series [4] turned out to be 1470 nM; in [7] it was 1630 nM.
For `CN1CCN(c2ccc(/C=C/C3=[N+](C)c4ccccc4C3(C)C)cc2)CC1.[I-]`, the outcome in series [1] was inactive. For the same compound, the result in series [3] was Active. This compound registered a solubility in series [6] greater than 500 µg/mL.
